{"source": "patent US8354447B2", "about": "“mGLU receptors antagonists for treating disorders associated with mGLU receptors including addiction and depression” (The Scripps Research Institute, priority 2002, dated 2013)", "key": {"male Wistar rats [1]": {"test_system": "male Wistar rats", "assay": "ICSS thresholds during and after withdrawal from chronic nicotine, bupropion", "assay_type": "in vivo, rat", "from_the_text": "Trials began with an electrical stimulus followed by a 7.5-s response window within which the animal could make a response to receive a second contingent stimulus identical to the initial noncontingent stimulus. A response during this 7.5-s window was considered a positive response, whereas the lack of a response was considered a negative response. Additional responses during a 2-s period immediately following a positive response had no consequence. The intertrial interval (ITI) that followed either a positive response or the end of the response window (in the case of a negative response) ranged from 7.5 to 12.5 s with an average duration of 10 s. […] Subjects then were tested on a current-threshold procedure in which stimulus intensities were varied during four alternating descending and ascending series with a step size of […]. Blocks of three trials were offered at each current step with the starting current of the first descending series set at […] above the subjects' individual baseline thresholds estimated at the end of preliminary training. […] An ascending series was terminated after two consecutive blocks of trials during which the animal made positive responses on at least two out of the three trials or after 15 successive increments were presented. The mean of the four current thresholds from the alternating series was defined as the subject's ICSS threshold for that session. A series was terminated after either 15 stimulus increments (or decrements) had occurred, or after the determination of the threshold for the series (see below). Each test session typically lasted 30 min.\nNaive animals were prepared with osmotic minipumps containing either an individualized nicotine solution (3.16 mg/kg per day, free base) or saline. […] After implantation of the minipumps, thresholds were assessed daily thereafter to assess the effects of chronic nicotine exposure on reward thresholds. Seven days (exactly seven 24-h periods) after pump insertion, the pumps were removed in order to precipitate the nicotine withdrawal syndrome. ICSS thresholds were measured 12, 18, 24, 36, 48 and 72 h after pump removal. Animals were injected with bupropion (0, 10, 20, 40 mg/kg IP; n=8-11) 30 min prior to the 18-h time point."}, "male Wistar rats [2]": {"test_system": "male Wistar rats", "conditions": "nicotine 0.25 mg/kg SC", "source_text": "Trials began with an electrical stimulus followed by a 7.5-s response window within which the animal could make a response to receive a second contingent stimulus identical to the initial noncontingent stimulus. A response during this 7.5-s window was considered a positive response, whereas the lack of a response was considered a negative response. Additional responses during a 2-s period immediately following a positive response had no consequence. The intertrial interval (ITI) that followed either a positive response or the end of the response window (in the case of a negative response) ranged from 7.5 to 12.5 s with an average duration of 10 s. […] Subjects then were tested on a current-threshold procedure in which stimulus intensities were varied during four alternating descending and ascending series with a step size of 5 mA. Blocks of three trials were offered at each current step with the starting current of the first descending series set at 30-40 mA above the subjects' individual baseline thresholds estimated at the end of preliminary training. […] An ascending series was terminated after two consecutive blocks of trials during which the animal made positive responses on at least two out of the three trials or after 15 successive increments were presented. The mean of the four current thresholds from the alternating series was defined as the subject's ICSS threshold for that session. A series was terminated after either 15 stimulus increments (or decrements) had occurred, or after the determination of the threshold for the series (see below). Each test session typically lasted 30 min."}, "Wistar rats [3]": {"test_system": "Wistar rats", "assay": "Cocaine self-administration under a fixed ratio schedule, ShA and LgA rats", "assay_type": "in vivo, rat", "experimental": "Rats (n=14) were food restricted to maintain them at 85% of their normal body weight obtained under free-feeding conditions, then trained to press a lever for 45 mg food pellets on a fixed-ratio 5 (FR5) schedule of reinforcement. […] Thus, a FR5 TO20 sec schedule of reinforcement was used.\nThe frequency of the stimulation was selected for individual animals so that baseline current-intensity thresholds of each subject were within 50-200 μA, and thus allowed both threshold elevations and lowerings to be detected. The frequency was held constant throughout the experiment. […] Current intensities were altered in 5 μA steps. […] Each testing session was ~30 min in duration. […] From day 10 onwards (the ‘escalation’ period), access to cocaine self-administration was increased from 1 h to 6 h per daily session in one group of rats (Long Access or LgA rats; n=7). Previous studies have shown that this schedule of access to cocaine self-administration results in a progressive increase or ‘escalation’ in daily cocaine consumption (Ahmed and Koob, 1997; Ahmed et al. 2001). In the other group (Short Access or ShA rats; n=7), access to cocaine self-administration was maintained at 1 h per daily session. Previous studies have shown that this schedule of access to cocaine self-administration maintains a stable level of daily cocaine consumption. After 22 days of 1 h (ShA) or 6 h (LgA) daily access to cocaine self-administration, both groups of rats received their first MPEP injection."}, "male Wistar rats [4]": {"test_system": "male Wistar rats", "assay": "Nicotine self-administration and food-maintained responding on a fixed ratio schedule in rats", "assay_type": "in vivo, rat", "experimental": "Two additional groups of rats were allowed to respond for food (45 mg Noyes food pellet) under a FR5 TO20 sec (n=10), and a FR5 TO210 sec (n=10) schedule. The two different schedules were employed to allow assessment of the effects of MPEP on responding for food under a reinforcement schedule (FR5 TO20 sec) identical to that used for nicotine, and under a reinforcement schedule (FR5 TO210) that equated response rates for food to those seen for nicotine. […] All test sessions were conducted for one hour per day, five days per week.\nAfter acquiring stable nicotine self-administration at either 0.01 mg/kg/infusion (n=9) or 0.03 mg/kg/infusion (n=9), or stable food-maintained responding on the FR5 TO 20 sec schedule (n=10) or the FR5 TO210 sec schedule (n=10), drug testing was initiated. MPEP (0, 1, 3 and 9 mg/kg) was administered intraperitoneally 30 minutes before the session, according to a Latin Square design, with at least six days elapsing between each test dose."}, "Wistar rats [5]": {"test_system": "Wistar rats", "assay": "Cocaine, nicotine and food responding under a progressive ratio schedule", "assay_type": "in vivo, rat", "from_the_text": "Under a fixed ratio schedule of reinforcement, as described above, an animal responds a ‘fixed’ number of times on an active lever to obtain a drug infusion. Fixed ratio (FR) schedules of reinforcement provide important information on whether a drug is reinforcing. […] By determining how hard an animal is willing to work for a drug, while limiting total intake, the PR schedule allows better separation of motivation for drug consumption from possible satiating effects of cumulative drug doses (Stafford et al. 1998). Such characteristics result in theoretically different interpretations of the factors controlling drug-seeking behavior on a PR compared with a FR. […] After acquisition of cocaine or nicotine self-administration under an FR, as described above, rats were switched to a PR schedule of reinforcement in which the following sequence of level presses was required to receive each subsequent infusion of nicotine or cocaine: 5, 10, 17, 24, 32, 42, 56, 73, 95, 124, 161, 208, etc. Rats were injected with MPEP (0, 1, 3 or 9 mg/kg) 30 min prior to each PR session. All PR sessions lasted for 3 h. All subjects reached breaking-points during the 3 hour session."}, "mice": {"test_system": "mice", "conditions": "30 mg/kg i.p.; cited from earlier work"}}, "note": "Read-outs that look alike come from different tables or passages of the source.", "data": [{"smiles": "CN1CCCC1c1cccnc1", "note": "(single isomer, unassigned; (-)) [nicotine, (−)-1-methyl-2-(3-pyridyl) pyrrolidine]", "values": [{"measurement": "day of maximal threshold-lowering effect", "setting": "male Wistar rats [1]; nicotine via minipumps", "value": 3, "unit": "days"}, {"measurement": "brain reward threshold", "setting": "male Wistar rats [1]; nicotine via minipumps 3.16 mg/kg per day for 7 days", "value": "small yet significant reduction in brain reward threshold"}, {"measurement": "time points with significant elevation in reward thresholds post-withdrawal", "setting": "male Wistar rats [1]; nicotine withdrawal, saline-injected animals", "value": "up to 36 h"}, {"measurement": "brain reward thresholds", "setting": "male Wistar rats [1]; withdrawal from chronic nicotine administration", "value": "significantly elevated brain reward thresholds"}, {"measurement": "brain reward thresholds", "setting": "male Wistar rats [2]", "value": "resulted in lowering of brain reward thresholds"}]}, {"smiles": "Cc1cccc(C#Cc2ccccc2)n1", "note": "[MPEP, 2-methyl-6-(phenylethynyl)-pyridine]", "values": [{"measurement": "cocaine responding", "setting": "Wistar rats [3]; 3, 6 and 9 mg/kg MPEP, ShA and LgA rats collapsed", "value": "significantly decreased cocaine responding in the collapsed group"}, {"measurement": "cocaine responding", "setting": "Wistar rats [3]; 3, 6 and 9 mg/kg MPEP, ShA rats", "value": "significantly decreased cocaine responding in ShA rats"}, {"measurement": "cocaine self-administration", "setting": "Wistar rats [3]; MPEP 1-9 mg/kg, FR5 TO20 sec", "value": "decreased cocaine self-administration in ShA and LgA rats"}, {"measurement": "cocaine responding", "setting": "Wistar rats [3]; only the highest dose of MPEP (9 mg/kg), LgA rats", "value": "significantly decreased cocaine responding in LgA rats"}, {"measurement": "Number of reinforcers earned during the entire 1 hour session", "setting": "male Wistar rats [4]; 1 mg/kg MPEP, 0.01 mg/kg/inf nic, FR5 TO20 sec", "value": "21 ± 3.1"}, {"measurement": "Number of reinforcers earned during the entire 1 hour session", "setting": "male Wistar rats [4]; 1 mg/kg MPEP, 0.03 mg/kg/inf nic, FR5 TO20 sec", "value": "13 ± 1.9"}, {"measurement": "Number of reinforcers earned during the entire 1 hour session", "setting": "male Wistar rats [4]; 1 mg/kg MPEP, 45 mg food pellet, FR5 TO20 sec", "value": "131.3 ± 8.2"}, {"measurement": "Number of reinforcers earned during the entire 1 hour session", "setting": "male Wistar rats [4]; 1 mg/kg MPEP, 45 mg food pellet, FR5 TO210 sec", "value": "16.3 ± 0.3"}, {"measurement": "Number of reinforcers earned during the entire 1 hour session", "setting": "male Wistar rats [4]; 3 mg/kg MPEP, 0.01 mg/kg/inf nic, FR5 TO20 sec", "value": "11 ± 2.7"}, {"measurement": "Number of reinforcers earned during the entire 1 hour session", "setting": "male Wistar rats [4]; 3 mg/kg MPEP, 0.03 mg/kg/inf nic, FR5 TO20 sec", "value": "11.4 ± 1.2"}, {"measurement": "Number of reinforcers earned during the entire 1 hour session", "setting": "male Wistar rats [4]; 3 mg/kg MPEP, 45 mg food pellet, FR5 TO20 sec", "value": "122.2 ± 7.4"}, {"measurement": "Number of reinforcers earned during the entire 1 hour session", "setting": "male Wistar rats [4]; 3 mg/kg MPEP, 45 mg food pellet, FR5 TO210 sec", "value": "15.2 ± 0.5"}, {"measurement": "Number of reinforcers earned during the entire 1 hour session", "setting": "male Wistar rats [4]; 9 mg/kg MPEP, 0.01 mg/kg/inf nic, FR5 TO20 sec", "value": "9.1 ± 3.0"}, {"measurement": "Number of reinforcers earned during the entire 1 hour session", "setting": "male Wistar rats [4]; 9 mg/kg MPEP, 0.03 mg/kg/inf nic, FR5 TO20 sec", "value": "4.8 ± 1.5"}, {"measurement": "Number of reinforcers earned during the entire 1 hour session", "setting": "male Wistar rats [4]; 9 mg/kg MPEP, 45 mg food pellet, FR5 TO20 sec", "value": "109 ± 12.98"}, {"measurement": "Number of reinforcers earned during the entire 1 hour session", "setting": "male Wistar rats [4]; 9 mg/kg MPEP, 45 mg food pellet, FR5 TO210 sec", "value": "15.2 ± 0.6"}, {"measurement": "nicotine self-administration", "setting": "male Wistar rats [4]; 3 and 9 mg/kg MPEP, 0.01 mg/kg/infusion nicotine", "value": "significantly reduced self-administration of the 0.01 mg/kg/infusion nicotine dose relative to the vehicle condition"}, {"measurement": "nicotine self-administration", "setting": "male Wistar rats [4]; MPEP 1, 3, 9 mg/kg, 0.03 mg/kg/inf nicotine", "value": "decreasing self-administration of the 0.03 mg/kg/inf dose only at 9 mg/kg"}, {"measurement": "inactive lever presses", "setting": "male Wistar rats [4]; MPEP 1-9 mg/kg", "value": "no effect of MPEP on inactive lever presses for any of the reinforcers"}, {"measurement": "responding for food", "setting": "Wistar rats [5]; MPEP 1-9 mg/kg, PR schedule", "value": "no statistically significant effect on responding for food"}, {"measurement": "responding under a progressive ratio schedule (motivation)", "setting": "Wistar rats [5]; MPEP 1-9 mg/kg, cocaine, nicotine, food", "value": "decreased the motivation of rats to obtain cocaine or nicotine without affecting their motivation for food"}, {"measurement": "break point", "setting": "Wistar rats [5]; PR schedule, cocaine and nicotine", "value": "significantly lowered the break point for cocaine and nicotine"}, {"measurement": "rotarod performance", "setting": "mice", "value": "had no effect on rotarod performance"}]}]}
